Source: patent US20120083476A1, “HETEROARYL-SUBSTITUTED SPIROCYCLIC DIAMINE UREA MODULATORS OF FATTY ACID AMIDE HYDROLASE” (Janssen Pharmaceutica NV, priority 2009, published 2012)
Counter-ions that a name gives are not always drawn. Like-named read-outs stand apart in the source and are kept apart here.

Columns and labels:
[1] = biological target: T1, Rat FAAH (Rattus norvegicus, UniProt P97612); assay: Assay Method 2: rat FAAH assay (3H-anandamide hydrolysis in cell homogenate); format: biochemical
T1 construct: expressed in transfected cells; host or cells: SK-N-MC cells stably transfected with rat FAAH cDNA (G418 selection)
T1 sequence (P97612 1-579): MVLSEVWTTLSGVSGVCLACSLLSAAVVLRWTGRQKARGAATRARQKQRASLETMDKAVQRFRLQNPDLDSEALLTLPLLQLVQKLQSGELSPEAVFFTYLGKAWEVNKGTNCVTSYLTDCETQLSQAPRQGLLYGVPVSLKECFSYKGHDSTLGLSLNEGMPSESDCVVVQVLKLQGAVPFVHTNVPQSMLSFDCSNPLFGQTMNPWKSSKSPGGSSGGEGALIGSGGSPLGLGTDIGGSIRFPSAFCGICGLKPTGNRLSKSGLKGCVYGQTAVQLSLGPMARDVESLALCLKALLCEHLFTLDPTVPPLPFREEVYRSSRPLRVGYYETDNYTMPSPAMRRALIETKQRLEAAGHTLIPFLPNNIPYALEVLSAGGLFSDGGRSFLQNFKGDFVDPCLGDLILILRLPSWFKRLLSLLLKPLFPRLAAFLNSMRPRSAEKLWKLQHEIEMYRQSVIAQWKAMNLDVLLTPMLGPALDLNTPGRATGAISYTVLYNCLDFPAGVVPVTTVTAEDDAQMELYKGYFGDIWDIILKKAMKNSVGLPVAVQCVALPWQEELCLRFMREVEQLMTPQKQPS
Procedure, shortened: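 Homogenates of T84 cells or SK-N-MC cells stably transfected with rat FAAH, in pH 9 Tris/EDTA/glycerol/Triton buffer, incubated 1 h at room temperature with 3H-anandamide. Released labeled ethanolamine separated from substrate on activated charcoal and counted by scintillation; values averaged over runs.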

[2] = biological target: T2, FAAH (Homo sapiens, UniProt O00519); assay: Assay Method 1: human FAAH assay (3H-anandamide hydrolysis in cell homogenate); format: biochemical; set-up: expressed in transfected cells; host or cells: SK-N-MC cells stably transfected with human FAAH cDNA (G418 selection); alternatively T84 cell pellets
T2 sequence (O00519 1-579): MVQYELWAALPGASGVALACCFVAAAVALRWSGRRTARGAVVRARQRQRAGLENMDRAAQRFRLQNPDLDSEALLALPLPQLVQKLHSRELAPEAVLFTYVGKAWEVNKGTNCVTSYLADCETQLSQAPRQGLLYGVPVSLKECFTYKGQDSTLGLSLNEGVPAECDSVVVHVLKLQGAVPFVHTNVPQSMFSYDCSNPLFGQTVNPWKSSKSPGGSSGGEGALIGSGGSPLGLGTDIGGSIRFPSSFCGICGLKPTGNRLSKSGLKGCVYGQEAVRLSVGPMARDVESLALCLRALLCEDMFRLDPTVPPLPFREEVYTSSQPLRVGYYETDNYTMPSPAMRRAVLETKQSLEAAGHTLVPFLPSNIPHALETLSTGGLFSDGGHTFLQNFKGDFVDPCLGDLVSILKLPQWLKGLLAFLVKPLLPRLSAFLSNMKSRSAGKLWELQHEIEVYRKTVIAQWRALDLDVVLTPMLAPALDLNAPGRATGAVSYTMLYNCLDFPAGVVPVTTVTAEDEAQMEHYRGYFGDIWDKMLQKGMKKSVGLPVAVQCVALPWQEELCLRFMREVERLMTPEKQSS
Procedure, shortened: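 Homogenates of T84 cells or SK-N-MC cells stably transfected with human FAAH, in pH 9 Tris/EDTA buffer with 0.02% Triton X-100. Incubated 1 h at rt with compound and 80 nM (final) [3H-ethanolamine]-anandamide. Released 3H-ethanolamine separated on charcoal filters and counted by scintillation.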

SMILES: Cc1nc2ccc(NC(=O)N3CC4(CCN(Cc5cccc(Oc6ccc(Cl)cc6)c5)CC4)C3)cc2s1 [Example 77, 7-(3-(4-chlorophenoxy)benzyl)-N-(2-methylbenzo[d]thiazol-6-yl)-2,7-diazaspiro[3.5]nonane-2-carboxamide, trifluoroacetic acid salt]
- IC50 ([1]; read-out: Assay 2 IC50): > 10000 nM
- IC50 ([2]; read-out: Assay 1 IC50): > 10000 nM

SMILES: Cc1cc(NC(=O)N2CC3(CCN(Cc4cccc(Oc5ccc(Cl)cc5)c4)CC3)C2)n[nH]1 [Example 78, 7-(3-(4-chlorophenoxy)benzyl)-N-(5-methyl-1H-pyrazol-3-yl)-2,7-diazaspiro[3.5]nonane-2-carboxamide, trifluoroacetic acid salt]
- IC50 ([1]; read-out: Assay 2 IC50): > 10000 nM
- IC50 ([2]; read-out: Assay 1 IC50): > 10000 nM

SMILES: Cc1cncc(NC(=O)N2CC3(CCN(Cc4cccc(Oc5ccc(Cl)cc5)c4)CC3)C2)c1 [Example 79, 7-(3-(4-chlorophenoxy)benzyl)-N-(5-methylpyridin-3-yl)-2,7-diazaspiro[3.5]nonane-2-carboxamide, trifluoroacetic acid salt]
- IC50 ([1]; read-out: Assay 2 IC50): 30 nM
- IC50 ([2]; read-out: Assay 1 IC50): 70 nM

SMILES: O=C(Nc1cccnc1F)N1CC2(CCN(Cc3cccc(Oc4ccc(Cl)cc4)c3)CC2)C1 [Example 80, 7-(3-(4-chlorophenoxy)benzyl)-N-(2-fluoropyridin-3-yl)-2,7-diazaspiro[3.5]nonane-2-carboxamide, trifluoroacetic acid salt]
- IC50 ([1]; read-out: Assay 2 IC50): 570 nM
- IC50 ([2]; read-out: Assay 1 IC50): 140 nM

SMILES: O=C(Nc1ccc(N2CCCCC2)nc1)N1CC2(CCN(Cc3cccc(Oc4ccc(Cl)cc4)c3)CC2)C1 [Example 81, 7-(3-(4-chlorophenoxy)benzyl)-N-(6-(piperidin-1-yl)pyridin-3-yl)-2,7-diazaspiro[3.5]nonane-2-carboxamide, trifluoroacetic acid salt]
- IC50 ([1]; read-out: Assay 2 IC50): 3000 nM
- IC50 ([2]; read-out: Assay 1 IC50): 1600 nM

SMILES: O=C(Nc1cncc(Br)c1)N1CC2(CCN(Cc3cccc(Oc4ccc(Cl)cc4)c3)CC2)C1 [Example 82, N-(5-bromopyridin-3-yl)-7-(3-(4-chlorophenoxy)benzyl)-2,7-diazaspiro[3.5]nonane-2-carboxamide, trifluoroacetic acid salt]
- IC50 ([1]; read-out: Assay 2 IC50): 20 nM
- IC50 ([2]; read-out: Assay 1 IC50): 280 nM

SMILES: N#Cc1ccncc1NC(=O)N1CC2(CCN(Cc3cccc(Oc4ccc(Cl)cc4)c3)CC2)C1 [Example 84, 7-(3-(4-chlorophenoxy)benzyl)-N-(4-cyanopyridin-3-yl)-2,7-diazaspiro[3.5]nonane-2-carboxamide]
- IC50 ([1]; read-out: Assay 2 IC50): 10 nM
- IC50 ([2]; read-out: Assay 1 IC50): 110 nM

SMILES: Cc1ccncc1NC(=O)N1CC2(CCN(Cc3cccc(Oc4ccc(Cl)cc4)c3)CC2)C1 [Example 85, 7-(3-(4-chlorophenoxy)benzyl)-N-(4-methylpyridin-3-yl)-2,7-diazaspiro[3.5]nonane-2-carboxamide]
- IC50 ([1]; read-out: Assay 2 IC50): 40 nM
- IC50 [2]: 80 nM

SMILES: O=C(Nc1cnccc1C(F)(F)F)N1CC2(CCN(Cc3cccc(Oc4ccc(Cl)cc4)c3)CC2)C1 [Example 86, 7-(3-(4-chlorophenoxy)benzyl)-N-(4-(trifluoromethyl)pyridin-3-yl)-2,7-diazaspiro[3.5]nonane-2-carboxamide]
- IC50 ([1]; read-out: Assay 2 IC50): 40 nM
- IC50 ([2]; read-out: Assay 1 IC50): 420 nM

SMILES: O=C(Nc1ccc(-n2nccn2)nc1)N1CC2(CCN(Cc3ccc4c(c3)OC(F)(F)O4)CC2)C1 [Example 88, 7-(2,2-Difluoro-benzo[1,3]dioxol-5-ylmethyl)-2,7-diaza-spiro[3.5]nonane-2-carboxylic acid (6-[1,2,3]triazol-2-yl-pyridin-3-yl)-amide]
- IC50 ([1]; read-out: Assay 2 IC50): > 10000 nM
- IC50 ([2]; read-out: Assay 1 IC50): 4000 nM

SMILES: O=C(Nc1cccnc1)N1CCC2(CCN(Cc3cccc(Oc4ccc(Cl)cc4)c3)CC2)C1 [Example 90, 8-[3-(4-Chloro-phenoxy)-benzyl]-2,8-diaza-spiro[4.5]decane-2-carboxylic acid pyridin-3-ylamide, trifluoroacetic acid salt]
- IC50 [1]: 430 nM
- IC50 [2]: 2000 nM

SMILES: O=C(Nc1ccc(-n2nccn2)nc1)N1CCC2(CCN(Cc3cccc(Oc4ccc(Cl)cc4)c3)CC2)C1 [Example 91, 8-[3-(4-Chloro-phenoxy)-benzyl]-2,8-diaza-spiro[4.5]decane-2-carboxylic acid (6-[1,2,3]triazol-2-yl-pyridin-3-yl)-amide, trifluoroacetic acid salt]
- IC50 ([1]; read-out: Assay 2 IC50): 260 nM
- IC50 ([2]; read-out: Assay 1 IC50): 200 nM

SMILES: O=C(Nc1noc2ccccc12)N1CCC2(CCN(Cc3cccc(Oc4ccc(Cl)cc4)c3)CC2)C1 [Example 92, 8-[3-(4-Chloro-phenoxy)-benzyl]-2,8-diaza-spiro[4.5]decane-2-carboxylic acid benzo[d]isoxazol-3-ylamide, trifluoroacetic acid salt]
- IC50 ([1]; read-out: Assay 2 IC50): 20 nM
- IC50 ([2]; read-out: Assay 1 IC50): 160 nM

SMILES: O=C(Nc1cccnc1)N1CCC2(CCCN2Cc2cccc(Oc3ccc(Cl)cc3)c2)CC1 [Example 93, 1-[3-(4-Chloro-phenoxy)-benzyl]-1,8-diaza-spiro[4.5]decane-8-carboxylic acid pyridin-3-ylamide]
- IC50 ([1]; read-out: Assay 2 IC50): 480 nM
- IC50 ([2]; read-out: Assay 1 IC50): 1100 nM

SMILES: O=C(Nc1ccc(-n2nccn2)nc1)N1CCC2(CCCN2Cc2cccc(Oc3ccc(Cl)cc3)c2)CC1 [Example 94, 1-[3-(4-Chloro-phenoxy)-benzyl]-1,8-diaza-spiro[4.5]decane-8-carboxylic acid (6-[1,2,3]triazol-2-yl-pyridin-3-yl)-amide]
- IC50 ([1]; read-out: Assay 2 IC50): 580 nM
- IC50 ([2]; read-out: Assay 1 IC50): 370 nM

SMILES: O=C(Nc1cnc2[nH]ccc2c1)N1CCC2(CCCN2Cc2cccc(Oc3ccc(Cl)cc3)c2)CC1 [Example 95, 1-[3-(4-Chloro-phenoxy)-benzyl]-1,8-diaza-spiro[4.5]decane-8-carboxylic acid (1H-pyrrolo[2,3-b]pyridin-5-yl)-amide]
- IC50 ([1]; read-out: Assay 2 IC50): 400 nM
- IC50 ([2]; read-out: Assay 1 IC50): 780 nM

SMILES: O=C(Nc1cccnc1)N1CC2(CCCN(Cc3cccc(Oc4ccc(Cl)cc4)c3)C2)C1 [Example 96, 6-[3-(4-Chloro-phenoxy)-benzyl]-2,6-diaza-spiro[3.5]nonane-2-carboxylic acid pyridin-3-ylamide]
- IC50 ([1]; read-out: Assay 2 IC50): 6000 nM
- IC50 [2]: 8000 nM

SMILES: O=C(Nc1cccnc1)N1CC2(CCN(Cc3ccccc3)CC2)C1 [Example 97, 7-Benzyl-2,7-diaza-spiro[3.5]nonane-2-carboxylic acid pyridin-3-ylamide]
- IC50 ([1]; read-out: Assay 2 IC50): > 10000 nM
- IC50 ([2]; read-out: Assay 1 IC50): > 10000 nM

SMILES: O=C(Nc1cccnc1)N1CC2(CCN(Cc3ccc(Cl)cc3)CC2)C1 [Example 100, 7-(4-Chloro-benzyl)-2,7-diaza-spiro[3.5]nonane-2-carboxylic acid pyridin-3-ylamide]
- IC50 ([1]; read-out: Assay 2 IC50): > 10000 nM
- IC50 ([2]; read-out: Assay 1 IC50): 8000 nM

SMILES: O=C(Nc1cccnc1)N1CC2(CCN(Cc3ccc(Cl)c(Cl)c3)CC2)C1 [Example 101, 7-(3,4-dichlorobenzyl)-N-(pyridin-3-yl)-2,7-diazaspiro[3.5]nonane-2-carboxamide]
- IC50 ([1]; read-out: Assay 2 IC50): > 10000 nM
- IC50 ([2]; read-out: Assay 1 IC50): 6000 nM

SMILES: O=C(Nc1cccnc1)N1CC2(CCN(Cc3ccc(OC(F)(F)F)cc3)CC2)C1 [Example 103, N-(pyridin-3-yl)-7-(4-(trifluoromethoxy)benzyl)-2,7-diazaspiro[3.5]nonane-2-carboxamide]
- IC50 ([1]; read-out: Assay 2 IC50): > 10000 nM
- IC50 ([2]; read-out: Assay 1 IC50): 1300 nM

SMILES: O=C(Nc1cccnc1)N1CC2(CCN(Cc3ccc4ccccc4c3)CC2)C1 [Example 104, 7-(naphthalen-2-ylmethyl)-N-(pyridin-3-yl)-2,7-diazaspiro[3.5]nonane-2-carboxamide]
- IC50 ([1]; read-out: Assay 2 IC50): > 10000 nM
- IC50 ([2]; read-out: Assay 1 IC50): 2500 nM

SMILES: O=C(Nc1cccnc1)N1CC2(CCN(Cc3cccc(C#Cc4ccccc4)c3)CC2)C1 [Example 105, 7-(3-(phenylethynyl)benzyl)-N-(pyridin-3-yl)-2,7-diazaspiro[3.5]nonane-2-carboxamide]
- IC50 ([1]; read-out: Assay 2 IC50): 8000 nM
- IC50 ([2]; read-out: Assay 1 IC50): 370 nM

SMILES: CS(=O)(=O)c1ccc(CN2CCC3(CC2)CN(C(=O)Nc2cccnc2)C3)cc1 [Example 106, 7-(4-(methylsulfonyl)benzyl)-N-(pyridin-3-yl)-2,7-diazaspiro[3.5]nonane-2-carboxamide]
- IC50 ([1]; read-out: Assay 2 IC50): > 10000 nM
- IC50 ([2]; read-out: Assay 1 IC50): > 10000 nM
